Measurements reported in the supplement of paper PMC10290057.

Columns and labels:
HCT116 [1] = test: AC50 cell viability (CellTiter-Glo); higher = less potent; settings: 48 h
HCT116 [2] = test: efficacy (fitted maximal change in viability relative to DMSO control); higher = less cytotoxic (negative = loss of viability); settings: 48 h
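Throughout, for AC50 cell viability (CellTiter-Glo): HCT116 colorectal carcinoma cells screened at five concentrations per compound, luminescent viability scaled between DMSO wells and empty wells on each plate, curves fitted per compound.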
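Throughout, for efficacy (fitted maximal change in viability relative to DMSO control): Luminescence-based viability readout, five doses per compound, normalized against on-plate DMSO and empty-well controls, followed by dose-response curve fitting for every drug.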

**Q.** Which AC50 cell viability (HCT116 [1]) does the source give for `CC(C)(C)C(=O)OCOP(=O)(COCCn1cnc2c(N)ncnc21)OCOC(=O)C(C)(C)C` [Adefovir dipivoxil] here?
**A.** Its AC50 cell viability is 3.32 µM.

**Q.** And the efficacy (HCT116 [2])?
**A.** Its efficacy is -55.3%.

**Q.** What does the source list for `O=C(NOCCO)c1ccc2cncn2c1Nc1ccc(I)cc1F` [GDC-0623]?
**A.** AC50 cell viability (HCT116 [1]): 11.8 µM; efficacy (HCT116 [2]): -43.9%

**Q.** With `CN(C)c1cc2c(cc1Sc1nc3c(N)nccc3n1CCNCC(C)(C)C)OCO2` [CUDC-305] as the compound, how does the AC50 cell viability (HCT116 [1]) read?
**A.** Its AC50 cell viability is 0.468 µM.

**Q.** And the efficacy (HCT116 [2])?
**A.** Its efficacy is -66.5%.

**Q.** Which results are given for `CCCC(CCC)C(=O)NC/1=N/C(=O)N(/C=C1)[C@@H]2O[C@H](CO)[C@@H](O)C2(F)F`?
**A.** AC50 cell viability (HCT116 [1]): 2.63 µM; efficacy (HCT116 [2]): -48.1%

**Q.** Which results are given for `CC(C)(C)Sc1c(CC(C)(C)C(=O)O)n(Cc2ccc(Cl)cc2)c2ccc(OCc3ccc4ccccc4n3)cc12` [MK591]?
**A.** AC50 cell viability (HCT116 [1]): 20.9 µM; efficacy (HCT116 [2]): -88.4%

**Q.** Which AC50 cell viability (HCT116 [1]) does the source give for `CN[C@@H]1C[C@H]2O[C@@](C)([C@@H]1OC)n1c3ccccc3c3c4c(c5c6ccccc6n2c5c31)C(=O)N[C@H]4O` [7-Hydroxystaurosporine] here?
**A.** Its AC50 cell viability is 0.241 µM.

**Q.** What about the efficacy (HCT116 [2]) of the same compound?
**A.** The efficacy was -92.5%.

**Q.** Which AC50 cell viability (HCT116 [1]) does the source give for `O=C(NCCCNC(=O)c1cccnc1O)c1cc(-c2ccccc2)on1` [ML327] here?
**A.** Its AC50 cell viability is 8.33 µM.

**Q.** And the efficacy (HCT116 [2])?
**A.** Its efficacy is -62.3%.

**Q.** `O=C1\C=C(OC2=C(C=CC=C12)C3=CC=CC4=C3SC5=C4C=CC=C5)\N6CCOCC6` [NU-7441] was tested. Which AC50 cell viability (HCT116 [1]) did it give?
**A.** Its AC50 cell viability is 3.72 µM.

**Q.** And the efficacy (HCT116 [2])?
**A.** The efficacy was -76.8%.

**Q.** With `CCN(C(=O)C/1=C(O)/C2=C(C=CC=C2Cl)N(C)C1=O)C3=CC=CC=C3` [Laquinimod] as the compound, how does the AC50 cell viability (HCT116 [1]) read?
**A.** The AC50 cell viability was 10.5 µM.

**Q.** What about the efficacy (HCT116 [2]) of the same compound?
**A.** Its efficacy is -65.8%.

**Q.** `COc1ccc(N(C(=O)Oc2c(C)cccc2C)c2ccnc(Nc3ccc(N4CCN(C)CC4)cc3)n2)c(OC)c1` was tested. Which AC50 cell viability (HCT116 [1]) did it give?
**A.** The AC50 cell viability was 0.661 µM.

**Q.** And the efficacy (HCT116 [2])?
**A.** Its efficacy is -41%.

**Q.** With `CC[C@@]1(O)C(=O)OC/C2=C1/C=C3\N(CC4=C5[C@@H](N)CCC6=C5C(=CC(=C6C)F)N=C34)C2=O` [Exatecan] as the compound, how does the AC50 cell viability (HCT116 [1]) read?
**A.** The AC50 cell viability was 0.0417 µM.

**Q.** And the efficacy (HCT116 [2])?
**A.** Its efficacy is -64%.

**Q.** Which results are given for `COc1ncc(Nc2ncc([C@H](C)N3CCN([S+](C)(=O)[O-])CC3)cc2-c2nc(C)nc(N)n2)cc1F` [AMG-511]?
**A.** AC50 cell viability (HCT116 [1]): 5.9 µM; efficacy (HCT116 [2]): -80.5%

**Q.** With `Fc1ccc2[nH]ccc2c1-c1nc(N2CCOCC2)c2sc(CN3CCN(CC4CC4)CC3)cc2n1` [PI-3065] as the compound, how does the AC50 cell viability (HCT116 [1]) read?
**A.** The AC50 cell viability was 18.6 µM.

**Q.** What about the efficacy (HCT116 [2]) of the same compound?
**A.** The efficacy was -95.1%.

**Q.** For `CNC(=O)c1cccc2cc(Oc3ccnc4cc(OCC5(N)CC5)c(OC)cc34)ccc12` [Lucitanib], which AC50 cell viability (HCT116 [1]) is on record?
**A.** Its AC50 cell viability is 14.8 µM.

**Q.** And the efficacy (HCT116 [2])?
**A.** The efficacy was -96.6%.

**Q.** `Cc1ccc(NC(=O)c2ccc(CN3CCNCC3)cc2)cc1Nc1nccc(-c2cccnc2)n1` was tested. Which AC50 cell viability (HCT116 [1]) did it give?
**A.** Its AC50 cell viability is 18.6 µM.

**Q.** And the efficacy (HCT116 [2])?
**A.** The efficacy was -93.9%.

**Q.** With `Nc1cc(C(F)(F)F)c(-c2nc(N3CCOCC3)nc(N3CCOCC3)n2)cn1` [Bimiralisib] as the compound, how does the AC50 cell viability (HCT116 [1]) read?
**A.** The AC50 cell viability was 1.86 µM.

**Q.** And the efficacy (HCT116 [2])?
**A.** The efficacy was -60.2%.

**Q.** With `CC1(C)CCC(=C(CN2CCN(CC2)C3=CC=C(C=C3)C(=O)N[S+]([O-])(=O)C4=CC(=C(N[C@H](CCN5CCOCC5)CSC6=CC=CC=C6)C=C4)[S+]([O-])(=O)C(F)(F)F)\C1)/C7=CC=C(Cl)C=C7` [Navitoclax (ABT-263)] as the compound, how does the AC50 cell viability (HCT116 [1]) read?
**A.** Its AC50 cell viability is 13.2 µM.

**Q.** And the efficacy (HCT116 [2])?
**A.** The efficacy was -90.7%.

**Q.** Which AC50 cell viability (HCT116 [1]) does the source give for `Cc1ccc(C(=O)OCc2ccc([C@@H](CN)C(=O)Nc3ccc4cnccc4c3)cc2)c(C)c1` [Netarsudil] here?
**A.** The AC50 cell viability was 8.11 µM.

**Q.** And the efficacy (HCT116 [2])?
**A.** The efficacy was -108%.

**Q.** Which AC50 cell viability (HCT116 [1]) does the source give for `CN(C)CC(=O)N1CCC(CC1)C2=CC=C(NC(=O)C3=NC(=C[NH]3)C#N)C(=C2)\C4=C\CCCC4` here?
**A.** The AC50 cell viability was 16.6 µM.

**Q.** And the efficacy (HCT116 [2])?
**A.** The efficacy was -80.1%.

**Q.** How did the AC50 cell viability (HCT116 [1]) turn out when `CN1CCN(C2CCN(C(=O)Nc3cc(Oc4ccc(NC(=O)C5(C(=O)Nc6ccc(F)cc6)CC5)c(F)c4)ccn3)CC2)CC1` [Golvatinib] was run?
**A.** Its AC50 cell viability is 14.8 µM.

**Q.** And the efficacy (HCT116 [2])?
**A.** The efficacy was -93.6%.

**Q.** `Cc1ccc(Nc2cc(-c3cccc(N4C(=O)c5ccccc5C4=O)c3)ncn2)cc1N[S+](C)(=O)[O-]` [CDK9 Inhibitor] was tested. Which AC50 cell viability (HCT116 [1]) did it give?
**A.** Its AC50 cell viability is 20.9 µM.

**Q.** What about the efficacy (HCT116 [2]) of the same compound?
**A.** The efficacy was -73.6%.

**Q.** Which results are given for `CONC(=O)Nc1ccc(-c2sc3c(c2CN(C)Cc2ccccc2)c(=O)n(-c2ccccc2)c(=O)n3Cc2c(F)cccc2F)cc1` [Sufugolix]?
**A.** AC50 cell viability (HCT116 [1]): 16.6 µM; efficacy (HCT116 [2]): -35.8%
